Results reported in publication PMC6214665 (Bioorganic & medicinal chemistry letters, 2017).

Key:
[1] = MRC5 cell proliferation counterscreen; assay type: cell-based; details: human, MRC5 cells, MRC5 EC50, cytotoxicity, human cell line
T. brucei = T. brucei cell proliferation assay; assay type: cell-based, Trypanosoma brucei
T. cruzi = T. cruzi cell proliferation assay; assay type: cell-based; details: Trypanosoma cruzi, read-out: T. cruzi EC50, mean ± SD; n = 4

| Structure (SMILES) | EC50 [1] [µM] | other results |
| --- | --- | --- |
| Cc1ccc(-c2ccc3[nH]c(=O)nc(-c4ccccc4)c3c2)cn1 [Compound 7] | > 50 |  |
| O=c1nc(-c2ccccc2)c2cc(-c3ccncc3)ccc2[nH]1 [Compound 1] | > 50 |  |
| N#Cc1ccc(-c2cccc3[nH]c(=O)nc(-c4ccccc4)c23)cc1 [Compound 34] | > 50 |  |
| N#Cc1ccc(-c2ccc3[nH]c(=O)nc(-c4ccccc4)c3c2)cc1 [Compound 18] | > 50 |  |
| Cc1cc(-c2ccc3[nH]c(=O)nc(-c4ccccc4)c3c2)ccn1 [Compound 5] | > 50 | fold loss of potency in T. brucei assay (T. brucei; relative to 1): < 3 fold |
| O=c1nc(-c2ccccc2)c2ccc(-c3cncnc3)cc2[nH]1 [Compound 30] | > 50 |  |
| O=c1nc(-c2ccccc2)c2cc(-c3cn[nH]c3)ccc2[nH]1 [Compound 25] |  | EC50 (T. cruzi): < 10 µM |
| COc1ccccc1-c1nc(=O)[nH]c2ccc(-c3cc[nH]n3)cc12 [Compound 40] | > 50 |  |
| O=c1nc(-c2ccccc2)c2cc(-c3ccc(F)cc3)ccc2[nH]1 [Compound 17] | > 50 | EC50 (T. cruzi): < 10 µM |
| Cn1cc(-c2ccc3[nH]c(=O)nc(-c4ccccc4)c3c2)cn1 [Compound 26] | > 50 |  |
| O=c1nc(-c2ccccc2)c2cc(N3CCOCC3)ccc2[nH]1 [Compound 38] | > 50 |  |
| Cc1ccccc1-c1nc(=O)[nH]c2ccc(-c3cc[nH]n3)cc12 [Compound 39] | > 50 | EC50 (T. cruzi): < 10 µM |
| Cc1noc(C)c1-c1ccc2[nH]c(=O)nc(-c3ccccc3)c2c1 [Compound 23] | > 50 |  |
| O=c1nc(-c2ccccc2)c2cc(-c3cnc4ccccc4c3)ccc2[nH]1 [Compound 13] | > 50 | EC50 (T. cruzi): < 10 µM |
| O=c1nc(-c2ccccc2)c2ccc(-c3ccncc3)cc2[nH]1 [Compound 28] | > 50 |  |
| O=c1nc(C2CCC2)c2cc(-c3cc[nH]n3)ccc2[nH]1 [Compound 42] | > 50 | fold loss of potency in T. brucei assay (T. brucei; relative to C4-phenyl analog 24): ~6 fold |
| O=c1nc(-c2ccccc2)c2cc(-c3ccc(N4CCOCC4)cc3)ccc2[nH]1 [Compound 21] |  | EC50 (T. cruzi): < 10 µM |
| Cn1ccc(-c2cccc3[nH]c(=O)nc(-c4ccccc4)c23)n1 [Compound 33] | > 50 |  |
| Cc1ccc2[nH]c(=O)nc(-c3ccccc3)c2c1 [Compound 35] | > 50 |  |
| Cc1ccncc1-c1ccc2[nH]c(=O)nc(-c3ccccc3)c2c1 [Compound 8] | > 50 | EC50 (T. cruzi): < 10 µM |

| Structure (SMILES) | EC50 [1] [µM] | other results |
| --- | --- | --- |
| O=c1nc(-c2ccccc2)c2cc(-c3cccc(F)c3)ccc2[nH]1 [Compound 16] | > 50 | EC50 (T. cruzi): < 10 µM |
| CNC(=O)c1cccc(-c2ccc3[nH]c(=O)nc(-c4ccccc4)c3c2)c1 [Compound 19] | > 50 |  |
| CN(C)c1ccc(-c2ccc3[nH]c(=O)nc(-c4ccccc4)c3c2)cn1 [Compound 11] | > 50 |  |
| O=c1nc(-c2ccccc2)c2ccc(-c3ccc(F)cc3)cc2[nH]1 [Compound 32] | > 50 |  |
| O=c1nc(-c2ccccc2)c2cc(-c3ccc(C(F)(F)F)nc3)ccc2[nH]1 [Compound 10] | > 50 |  |
| O=c1nc(-c2ccccc2)c2cc(-c3ccc(N4CCCC4)nc3)ccc2[nH]1 [Compound 12] | > 50 | EC50 (T. cruzi): < 10 µM |
| O=c1nc(-c2ccccc2)c2cc(N3CCNCC3)ccc2[nH]1 [Compound 37] | > 25 |  |
| O=c1nc(-c2ccccc2)c2cc(-c3cc[nH]n3)ccc2[nH]1 [Compound 24] | > 50 |  |
| O=c1nc(-c2ccccc2)c2cc(-c3ccccc3)ccc2[nH]1 [Compound 14] | > 50 | fold loss of potency in T. brucei assay (T. brucei; relative to 1): ~ 2.5 fold |
| O=c1nc(-c2ccccc2)c2cc(-c3cccc(N4CCOCC4)c3)ccc2[nH]1 [Compound 20] | > 50 |  |
| O=c1nc(-c2ccccc2)c2cc(-c3cccnc3)ccc2[nH]1 [Compound 6] | > 50 |  |
| Cn1nccc1-c1ccc2[nH]c(=O)nc(-c3ccccc3)c2c1 [Compound 27] | > 50 |  |
| O=c1nc(-c2ccccc2)c2cc(-c3ccccc3F)ccc2[nH]1 [Compound 15] | > 50 | EC50 (T. cruzi): < 10 µM |
| O=c1nc(-c2ccccc2)c2ccc(-c3cccc(N4CCOCC4)c3)cc2[nH]1 [Compound 31] | > 50 |  |
| O=c1nc(C2CCCCC2)c2cc(-c3cc[nH]n3)ccc2[nH]1 [Compound 41] | > 50 |  |
| Cc1cncc(-c2ccc3[nH]c(=O)nc(-c4ccccc4)c3c2)c1 [Compound 9] | > 50 | EC50 (T. cruzi): < 10 µM |
| O=c1nc(-c2ccccc2)c2cc(-c3cncnc3)ccc2[nH]1 [Compound 22] | > 50 |  |
| CN1CCN(c2ccc3[nH]c(=O)nc(-c4ccccc4)c3c2)CC1 [Compound 36] | > 50 |  |
| O=c1nc(-c2ccccc2)c2ccc(-c3cccnc3)cc2[nH]1 [Compound 29] | > 50 |  |
